From PubChem BioAssay (NCI) come the findings set out here.

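Following 48 hours of exposure in 96-well plates, responses at five concentrations were used to interpolate endpoints linearly. TGI is the concentration that stops growth completely.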

Among the test systems are LOX IMVI melanoma; ACHN renal; MALME-3M melanoma; SF-539 CNS; OVCAR-8 ovarian; 786-0 renal; SW-620 colon; IGROV1 ovarian; NCI-H23 lung; UO-31 renal; NCI-H226 lung; NCI-H522 lung; A549 NSCLC; TK-10 renal; OVCAR-3 ovarian.
Experiment in all cases: inhibition of tumour cell growth, NCI panel, 48 h

Regarding `O=C1c2ccccc2C(=O)N1C/C=N/NS(=O)(=O)c1ccc(Cl)cc1`, the TGI in the experiment on LOX IMVI melanoma, in the experiment with ACHN renal, in the experiment on MALME-3M melanoma, in the experiment on SF-539 CNS, with OVCAR-8 ovarian and with 786-0 renal was greater than 100 µM in each case. The TGI in the experiment on SW-620 colon, with IGROV1 ovarian, in the experiment on NCI-H23 lung, in the experiment with UO-31 renal, with NCI-H226 lung and with NCI-H522 lung was greater than 100 µM throughout. Moreover, the TGI with A549 NSCLC and with TK-10 renal was greater than 100 µM throughout.

`CC(=O)C1CC2(c3ccccc3)C(=O)c3ccccc3N2O1` (stereo unspecified): the TGI in the experiment on ACHN renal, with MALME-3M melanoma, in the experiment on SF-539 CNS, with OVCAR-8 ovarian, with 786-0 renal and in the experiment with SW-620 colon was greater than 100 µM throughout. The TGI in the experiment on IGROV1 ovarian, in the experiment on NCI-H23 lung, with UO-31 renal, in the experiment with NCI-H226 lung, in the experiment on NCI-H522 lung and with A549 NSCLC was greater than 100 µM each time.

Consider `O=C(Cc1ccccc1)NN1C(=O)C(Cl)C1c1cc(Br)cc(Br)c1O` (stereo unspecified), for which the TGI in the experiment with LOX IMVI melanoma was 40 µM; in the experiment on OVCAR-3 ovarian, 10.7 µM; in the experiment on ACHN renal, greater than 100 µM; in the experiment on MALME-3M melanoma, 51.9 µM; in the experiment with OVCAR-8 ovarian it was greater than 100 µM; with 786-0 renal, 36.7 µM. Besides, the TGI with SW-620 colon was 30.5 µM; in the experiment on IGROV1 ovarian, 58.9 µM; in the experiment with NCI-H23 lung it was 33.2 µM; with UO-31 renal, 20.6 µM; with NCI-H226 lung, 36.9 µM; with NCI-H522 lung, 16.9 µM. Further, the TGI was 76.1 µM with A549 NSCLC and greater than 100 µM in the experiment on TK-10 renal.

Take `CCN(CC)CCNC(=O)c1ccccc1Nc1c(Cl)cccc1Cl`: the TGI in the experiment on LOX IMVI melanoma is 24.3 µM; in the experiment on ACHN renal it was 31.3 µM; in the experiment on SF-539 CNS, 32.7 µM; in the experiment with OVCAR-8 ovarian, 31.5 µM; with 786-0 renal it was 19 µM; in the experiment on SW-620 colon, 29.6 µM. The TGI came to 36.1 µM in the experiment with IGROV1 ovarian; 33.3 µM in the experiment on NCI-H23 lung; 22.2 µM with UO-31 renal; 38.5 µM in the experiment with NCI-H226 lung; 32.6 µM in the experiment on A549 NSCLC; 24.8 µM in the experiment on TK-10 renal.

For the molecule `COc1ccccc1OCc1nnc(SCC(=O)O)n1-c1ccccc1`, the TGI in the experiment on LOX IMVI melanoma, with OVCAR-3 ovarian, in the experiment on ACHN renal, with MALME-3M melanoma, with SF-539 CNS and with OVCAR-8 ovarian was greater than 100 µM each time. The TGI in the experiment with 786-0 renal, with IGROV1 ovarian, with NCI-H23 lung, in the experiment on UO-31 renal, in the experiment on NCI-H226 lung and with NCI-H522 lung was greater than 100 µM each time. For the same molecule, the TGI in the experiment with A549 NSCLC and in the experiment on TK-10 renal was greater than 100 µM throughout.

On to `CN(C)CC1CCC(CN(C)C)C1=NO` (stereo unspecified), for which the TGI with LOX IMVI melanoma, in the experiment with OVCAR-3 ovarian, in the experiment with ACHN renal, in the experiment on MALME-3M melanoma, in the experiment on SF-539 CNS and with OVCAR-8 ovarian was greater than 100 µM each time. In addition, the TGI with 786-0 renal, with SW-620 colon, with IGROV1 ovarian, in the experiment with UO-31 renal, with NCI-H522 lung and in the experiment with A549 NSCLC was greater than 100 µM each time. In addition, the TGI in the experiment with TK-10 renal was greater than 100 µM.

On to `CN1C(=O)NC2(O)c3ccccc3C(=O)C12O` (stereo unspecified), for which the TGI in the experiment with LOX IMVI melanoma, with OVCAR-3 ovarian, in the experiment on MALME-3M melanoma, with OVCAR-8 ovarian, in the experiment on 786-0 renal and in the experiment on SW-620 colon was greater than 100 µM throughout. Also, the TGI in the experiment on IGROV1 ovarian, in the experiment with NCI-H23 lung, in the experiment with UO-31 renal, with NCI-H522 lung, in the experiment with A549 NSCLC and in the experiment with TK-10 renal was greater than 100 µM throughout.

Turning to `CCC1N2CCCCC2[C@@H]2c3[nH]c4ccccc4c3CCN12` (stereo partly specified), the TGI in the experiment with OVCAR-3 ovarian, in the experiment with ACHN renal, in the experiment with MALME-3M melanoma, with SF-539 CNS, with OVCAR-8 ovarian and with 786-0 renal was greater than 100 µM throughout. The TGI in the experiment on SW-620 colon, with IGROV1 ovarian, with NCI-H23 lung, in the experiment on UO-31 renal, with NCI-H522 lung and in the experiment on A549 NSCLC was greater than 100 µM in each case. This molecule also yielded a TGI in the experiment with TK-10 renal greater than 100 µM.

For `CCC(=O)NCC1(c2c[nH]c3ccccc23)SCCS1`, the TGI in the experiment with LOX IMVI melanoma, with OVCAR-3 ovarian, with ACHN renal, with MALME-3M melanoma, with SF-539 CNS and with OVCAR-8 ovarian was greater than 100 µM in each case. In addition, the TGI in the experiment on 786-0 renal, in the experiment on SW-620 colon, in the experiment on IGROV1 ovarian, in the experiment with NCI-H23 lung, with NCI-H226 lung and in the experiment with NCI-H522 lung was greater than 100 µM each time. Moreover, the TGI in the experiment with A549 NSCLC and with TK-10 renal was greater than 100 µM each time.

Consider `N#CC(C(=N/NC(N)=S)/C(=N\NC(N)=S)C(C#N)c1ccccc1)c1ccccc1` (stereo unspecified), for which the TGI with LOX IMVI melanoma, in the experiment with OVCAR-3 ovarian, in the experiment on ACHN renal, in the experiment with MALME-3M melanoma, in the experiment on SF-539 CNS and in the experiment with OVCAR-8 ovarian was greater than 10 µM each time. The TGI in the experiment on 786-0 renal, in the experiment with SW-620 colon, in the experiment on NCI-H23 lung, with UO-31 renal, in the experiment with NCI-H226 lung and in the experiment on NCI-H522 lung was greater than 10 µM each time. Besides, the TGI with A549 NSCLC and in the experiment on TK-10 renal was greater than 10 µM each time.

For the molecule `CCOC(=O)NC(=O)c1cn(-c2ccc(CCOC(=O)CCCCCCCCC(=O)OCCc3ccc(-n4cc(C(=O)NC(=O)OCC)c(=O)[nH]c4=O)cc3)cc2)c(=O)[nH]c1=O`, the TGI with LOX IMVI melanoma, in the experiment on OVCAR-3 ovarian, in the experiment on ACHN renal, in the experiment on MALME-3M melanoma, in the experiment with SF-539 CNS and in the experiment on OVCAR-8 ovarian was greater than 100 µM in each case. In addition, the TGI in the experiment on 786-0 renal, in the experiment on SW-620 colon, with IGROV1 ovarian, in the experiment with NCI-H23 lung, in the experiment with UO-31 renal and with NCI-H226 lung was greater than 100 µM each time. Moreover, the TGI in the experiment with A549 NSCLC and in the experiment with TK-10 renal was greater than 100 µM throughout.

Take `C#Cc1cccc(N2C(=O)CC(=P(c3ccccc3)(c3ccccc3)c3ccccc3)C2=O)c1`: the TGI with OVCAR-3 ovarian is greater than 100 µM; in the experiment on ACHN renal, greater than 100 µM; in the experiment with MALME-3M melanoma, greater than 100 µM; in the experiment on OVCAR-8 ovarian it was greater than 100 µM; in the experiment with 786-0 renal, 75.7 µM; in the experiment on SW-620 colon it was greater than 100 µM. For the same molecule, the TGI in the experiment on NCI-H23 lung, in the experiment with UO-31 renal, in the experiment on NCI-H226 lung, with NCI-H522 lung, with A549 NSCLC and in the experiment on TK-10 renal was greater than 100 µM in each case.

For `COC(=O)C(=O)C(C(=O)C(=O)Nc1ccc([N+](=O)[O-])cc1C#N)c1nc2ccc([N+](=O)[O-])cc2[nH]c1=O` (stereo unspecified), the TGI with LOX IMVI melanoma, in the experiment on OVCAR-3 ovarian, in the experiment on ACHN renal, in the experiment on MALME-3M melanoma, with SF-539 CNS and with OVCAR-8 ovarian was greater than 100 µM each time. Also, the TGI with 786-0 renal, with SW-620 colon, with UO-31 renal, in the experiment with NCI-H226 lung, in the experiment on NCI-H522 lung and with A549 NSCLC was greater than 100 µM in each case. In the experiment on TK-10 renal, this molecule returned a TGI greater than 100 µM.

Consider `CCCN(CCC)C(=O)Cc1c2n(c3ccccc13)CCCc1ccccc1-2`, for which the TGI in the experiment with LOX IMVI melanoma came to 29.1 µM; in the experiment on OVCAR-3 ovarian, 29.5 µM; in the experiment on ACHN renal, 25.1 µM; in the experiment with MALME-3M melanoma, 26.8 µM; in the experiment with SF-539 CNS, 28.6 µM; with OVCAR-8 ovarian, 29.9 µM. For the same molecule, the TGI with 786-0 renal worked out at 30.6 µM; in the experiment on SW-620 colon, 30.2 µM; with NCI-H23 lung, 25.7 µM; with UO-31 renal, 27.2 µM; with NCI-H226 lung, 28.5 µM; in the experiment on NCI-H522 lung, 25.3 µM. Moreover, the TGI in the experiment on A549 NSCLC worked out at 28.2 µM; in the experiment with TK-10 renal, 29.5 µM.

As for `O=C1c2ccccc2N2OC3C4CCC(C4)C3C12c1ccccc1` (stereo unspecified), the TGI in the experiment on ACHN renal, with MALME-3M melanoma, with SF-539 CNS, with OVCAR-8 ovarian, in the experiment on 786-0 renal and in the experiment on SW-620 colon was greater than 100 µM throughout. In addition, the TGI with IGROV1 ovarian, in the experiment on NCI-H23 lung, in the experiment with UO-31 renal, with NCI-H226 lung, in the experiment with NCI-H522 lung and with A549 NSCLC was greater than 100 µM throughout.

For `COc1cc2c(cc1OC)[C@]1(O)C(=O)c3ccc4c(c3O[C@@H]1CO2)C[C@H](C(C)(C)O)O4`, the TGI with LOX IMVI melanoma, in the experiment on OVCAR-3 ovarian, in the experiment on ACHN renal, in the experiment with MALME-3M melanoma, in the experiment on SF-539 CNS and with OVCAR-8 ovarian was greater than 100 µM in each case. The TGI in the experiment with 786-0 renal, with SW-620 colon, in the experiment with IGROV1 ovarian, in the experiment on NCI-H23 lung, with UO-31 renal and in the experiment with NCI-H522 lung was greater than 100 µM throughout. The TGI with A549 NSCLC and in the experiment on TK-10 renal was greater than 100 µM in each case.
